Assays:
HeLa cells [1] = experiment: Live cell confocal imaging and time-lapse movies; assay type: cell-based, human
Procedure: (§1) NIH-3T3 or HeLa cells were seeded in an 8-well coverslip chamber (Lab-Tek) at a density of 100,000 cells per well and grown at 37 °C under 5% of CO2, 24 h later, cells were treated with 2.5 μM KRSs probes for 6 h. The medium was replaced with DMEM without phenol red, and Hoechst was added to a final concentration of 5 μg/mL. Live imaging of cells using a Zeiss LSM 710 Axio Observer.Z1 with a 63/24 Oil DIC M27 lens, in Cy3 and DAPI channels, was performed over 24 h; pictures were taken every 20–25 min. The Z-stack analysis was performed using 3–5 different depths focusing on the cell nucleus; each slice was 1–1.5 μm. Image processing was performed using NIS-Elements image acquisition software, quantifying the 63× images of several experiments and calculating the average fluorescence intensity. Statistics and standard deviation were calculated by using Microsoft Excel.

[2] = molecular target: Recombinant human cathepsin B (Homo sapiens, UniProt P07858); experiment: Recombinant cathepsin labeling, fluorescent SDS-PAGE; assay type: binding; conditions: pH 5.5, 37 °C, probe intensities compared with KRS-D1(qAc), GB111-NH2 given as pretreatment before KRS probes
Procedure: (§2) Recombinant human cathepsins B (0.7 μg), L (0.6 μg), or S (0.7 μg) in reaction buffer (50 mM acetate, 5 mM MgCl2, 2 mM DTT, pH 5.5) was pretreated with the cathepsin inhibitor GB111-NH2 or vehicle for 30 min at room temp. Indicated concentrations of KRS probes were added to the samples for 30 min at 37 °C. The reaction was stopped by adding 4× sample buffer (40% glycerol, 0.2 M Tris/HCl 6.8, 20% β-mercaptoethanol, 12% SDS, and 0.4 mg/mL bromophenol blue). The samples were boiled and separated by a 12% SDS gel and scanned by a Typhoon laser scanner at Ex./Em. 535/570 nm for fluorescence.

[3] = molecular target: Recombinant human cathepsin S (Homo sapiens, UniProt P25774); experiment: as above; assay type: binding; conditions: pH 5.5, 37 °C, probe intensities compared with KRS-D1(qAc), GB111-NH2 given as pretreatment before KRS probes
Procedure: as §2

[4] = molecular target: Recombinant human cathepsin L (Homo sapiens, UniProt P07711); experiment: as above; assay type: binding; conditions: pH 5.5, 37 °C, probe intensities compared with KRS-D1(qAc), GB111-NH2 given as pretreatment before KRS probes
Procedure: as §2

NIH-3T3 cells [5] = experiment: Live cell confocal imaging; assay type: cell-based, mouse; conditions: NIH-3T3, 2.5 μM, 6 h; for Probe staining intensity in live cells: fluorescence microscopy; for Nuclear cathepsin labeling (confocal Z-stack, costaining with Hoechst): 63× objective
Procedure: as §1

[6] = Quenching efficiency (fluorescent plate reader); assay type: physicochemical; conditions: lower fluorescence than average of nonquenched probes; slope ratio; 0.013–10 μM in acetate buffer pH 5.5; Ex./Em. 535/570 nm
Procedure: Increasing concentrations (0.013–10 μM) of KRS (A1-F1), in acetate buffer (50 mM acetate, 5 mM MgCl2, 2 mM DTT, pH 5.5), were prepared in a 96-well plate. Fluorescence was measured and quantified using a BioRad plate reader, Ex./Em. 535/570 nm. Arbitrary fluorescent units were plotted versus probe concentration, and the ratio between the slope of each quenched probe and the average of the nonquenched probes were determined as quenching efficiency.

[7] = molecular target: T1, intracellular cathepsin L in NIH-3T3 cells (Mus musculus, UniProt P06797); experiment: Probe labeling in intact cells, fluorescent SDS-PAGE; assay type: cell-based; conditions: live NIH-3T3, 6 h probe incubation, band intensity; in comparison to probes without the CPP
T1 construct: KRS probes freely penetrated the cells and labeled endogenous cathepsins in a dose-dependent manner; endogenous in cells; host or cells: NIH-3T3
Procedure: (§3) NIH-3T3 cells (2.5 × 10^5 cells/well) were seeded in a 12-well plate 1 day prior to treatment. Cells were pretreated with inhibitor GB111-NH2 or vehicle for 30 min followed by incubation with KRS probes at indicated concentrations predissolved in 0.1% DMSO and 0.9% ethanol in a culture medium. After 6 h of probe incubation cells were washed with PBS and lysed by addition of sample buffer as described above. Lysates were boiled for 5 min, centrifuged, and separated by 12.5% SDS-PAGE. Cathepsins labeled in cells were visualized by scanning the gel with a Typhoon laser scanner at Ex./Em. 535/570 nm.

[8] = molecular target: T2, intracellular cathepsin B in NIH-3T3 cells (Mus musculus, UniProt P10605); assay type: cell-based; conditions: for Labeling of intracellular cathepsin B: live NIH-3T3, 6 h probe incubation, band intensity, in comparison to probes without the CPP
T2 construct: KRS probes freely penetrated the cells and labeled endogenous cathepsins in a dose-dependent manner; endogenous in cells; host or cells: NIH-3T3
Procedure: as §3

HeLa cells [9] = experiment: Subcellular fractionation with fluorescent SDS-PAGE; assay type: cell-based, human; conditions: 2.5 μM, 6 h; for Active cathepsin in nuclear fraction: 20 μg protein per fraction
Procedure: Cell fractionation was performed according to the manufacturer’s instructions using the Subcellular Protein Fractionation Kit for Cultured Cells (Pierce, Thermo Fisher Scientific Inc., Rockford, IL, USA, number 78840). Lysed cells were separated into subsequent cytosol, membrane, and nuclear fractions. Extracted proteins were subjected to SDS PAGE separation and fluorescence and Western blot analysis.

HeLa cells [10] = assay type: cell-based, human
Procedure: (§4) NIH-3T3 cells (2.5 × 10^5 cells/well) or HeLa cells (2.0 × 10^5 cells/well) were seeded in a 12-well plate 1 day before treatment. Cells were incubated with KRS probes at 2.5 μM predissolved in 0.1% DMSO and 0.9% ethanol in a culture medium for indicated durations. After the incubation, cells were washed with PBS and lysed by the addition of sample buffer. Samples were analyzed by fluorescent SDS-PAGE as described above.

NIH-3T3 cells [11] = assay type: cell-based, mouse
Procedure: as §4

HeLa cells [12] = experiment: Image Streamer flow imaging, fixed cells; assay type: cell-based, human; conditions: 6 h, Draq5 stain
Procedure: Live or methanol fixed cells were pretreated with KRS probes at 2.5 μM for 6 h predissolved in 0.1% DMSO and 0.9% ethanol in a culture medium. After the incubation, cells were washed with PBS centrifuged and dissolved in PBS in a final volume of 50 μL. The DNA markers: Hoechst (Thermo Fisher) at a final concentration of 1 μg/mL or Draq5 (Thermo Fisher) at a final concentration of 1.5 μM were added. The samples were analyzed using an Image StreamX Flow Imager system (Merk Millipore).

Sequence of Recombinant human cathepsin L (P07711 114-333): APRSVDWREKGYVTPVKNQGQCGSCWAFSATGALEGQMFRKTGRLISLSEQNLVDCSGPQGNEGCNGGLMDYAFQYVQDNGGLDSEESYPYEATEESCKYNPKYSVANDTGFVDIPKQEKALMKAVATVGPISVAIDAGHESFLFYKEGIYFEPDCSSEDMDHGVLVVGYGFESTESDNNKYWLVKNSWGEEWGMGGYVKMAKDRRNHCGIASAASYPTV
Sequence of Recombinant human cathepsin S (P25774 115-331): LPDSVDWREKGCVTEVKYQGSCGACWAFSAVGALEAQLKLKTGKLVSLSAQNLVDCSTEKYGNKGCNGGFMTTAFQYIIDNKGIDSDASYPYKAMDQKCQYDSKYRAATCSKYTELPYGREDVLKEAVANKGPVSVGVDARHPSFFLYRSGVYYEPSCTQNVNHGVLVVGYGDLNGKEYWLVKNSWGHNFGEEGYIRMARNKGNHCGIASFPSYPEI
T2 sequence (P10605 80-333 limits assumed): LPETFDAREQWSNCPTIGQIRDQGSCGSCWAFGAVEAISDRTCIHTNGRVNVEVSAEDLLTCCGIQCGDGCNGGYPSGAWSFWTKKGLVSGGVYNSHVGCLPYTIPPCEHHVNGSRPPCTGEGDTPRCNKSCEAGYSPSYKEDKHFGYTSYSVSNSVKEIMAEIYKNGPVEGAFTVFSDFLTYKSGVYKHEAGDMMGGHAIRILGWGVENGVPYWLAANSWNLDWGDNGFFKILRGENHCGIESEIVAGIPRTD
T1 sequence (P06797 114-334): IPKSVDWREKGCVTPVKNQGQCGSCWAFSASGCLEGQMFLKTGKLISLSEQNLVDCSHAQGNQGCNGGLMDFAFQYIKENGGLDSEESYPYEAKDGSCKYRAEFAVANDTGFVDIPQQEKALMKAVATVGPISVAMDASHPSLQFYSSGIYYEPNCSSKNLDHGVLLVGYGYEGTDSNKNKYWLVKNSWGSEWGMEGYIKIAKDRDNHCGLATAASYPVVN

Row | Compound | Fluorescence labeling of recombinant cathepsin B [2] | Fluorescence labeling of recombinant cathepsin S [3] | Fluorescence labeling of recombinant cathepsin L [4] | Probe staining intensity in live cells (NIH-3T3 cells [5]) | Nuclear cathepsin labeling (confocal Z-stack, costaining with Hoechst) (NIH-3T3 cells [5]) | Fold quenching (quenching efficiency) [6] | Labeling of intracellular cathepsin L [7] | Labeling of intracellular cathepsin B [8] | also measured
1 | Cc1cccc(C)c1C(=O)OCC(=O)[C@H](CCCCN)NC(=O)[C@H](Cc1ccccc1)NC(=O)OCc1ccccc1 [GB111-NH2, reference compound] | dramatically reduced | dramatically reduced | dramatically reduced | – | – | – | – | – | Fluorescent signal of KRS probes after inhibitor pretreatment (HeLa cells [1]; live HeLa, 2.5 μM GB111-NH2 pretreatment, then KRS-B1(qTAT) or KRS-E1(qNLS) 6 h): strongly reduced
2 | Ac-Cys-Phe-Phe-Lys-(TMR-X)-AOMK-Ac [KRS-C1(Ac)] | – | – | – | relatively weak staining | – | – | – | – | –
3 | Ac-Cys-Phe-Phe-Lys-(TMR-X)-AOMK-QSY7 [KRS-D1(qAc)] | – | – | – | relatively weak staining | did not detect cathepsins in the nucleus | 61 fold | – | – | –
4 | NLS-Cys-Phe-Phe-Lys-(TMR-X)-AOMK-Ac [KRS-F1(NLS)] | – | – | – | intense staining | – | – | – | – | –
5 | NLS-Cys-Phe-Phe-Lys-(TMR-X)-AOMK-QSY7 [KRS-E1(qNLS)] | slightly lower | slightly lower | slightly lower | intense staining | label nuclear cathepsins | 54 fold | enhanced labeling | enhanced labeling | Cell permeability / cell penetration [8]: significantly greater cell penetration; Intensity in fractions relative to KRS-B1(qTAT) (HeLa cells [9]): weaker intensity; Active cathepsin in nuclear fraction (HeLa cells [9]): clear presence of active nuclear cathepsin
6 | TAT-Cys-Phe-Phe-Lys-(TMR-X)-AOMK-Ac [KRS-A1(TAT)] | – | – | – | intense staining | – | – | enhanced labeling | enhanced labeling | Binding relative to the other probes ([8]; as seen in Figures 2 and 6a): strongest binding of all probes; Permeability in time-course labeling (HeLa cells [10]): enhanced and accelerated permeability; Permeability in time-course labeling (NIH-3T3 cells [11]): enhanced and accelerated permeability
7 | TAT-Cys-Phe-Phe-Lys-(TMR-X)-AOMK-QSY7 [KRS-B1(qTAT)] | slightly lower | slightly lower | slightly lower | intense staining | label nuclear cathepsins | 66 fold | enhanced labeling | enhanced labeling | Effect on entry of cells to mitosis (HeLa cells [1]; HeLa, 2.5 μM, time-lapse over 22 h): inhibited the entry of cells to mitosis; Cell permeability / cell penetration [8]: significantly greater cell penetration; Nuclear cathepsin activity (TMR-X and Draq5 similarity) (HeLa cells [12]): much higher degree; Permeability in time-course labeling (HeLa cells [10]): enhanced and accelerated permeability; Permeability in time-course labeling (NIH-3T3 cells [11]): enhanced and accelerated permeability; Active cathepsin in nuclear fraction (HeLa cells [9]): clear presence of active nuclear cathepsin
